Measured values as given in patent US20160296591A1, “COMPOSITIONS AND METHODS FOR TREATMENT OF BDNF-RELATED CONDITIONS” (TARIX PHARMACEUTICALS LTD., priority 2013, published 2016).

Assays:
Type in all cases: cell-based, human
BDNF [1] = experiment: BDNF production in HDMEC, serum-free medium (BDNF Emax immunoassay); conditions: for lowest dose able to stimulate significant BDNF expression: serum-free medium, 24 hours stimulation, dose response 1×10^−14M to 1×10^−6M
Method: (§1) Prior to stimulation, cells were washed twice with sterile PBS and then provided with the respective serum free cell medium. Cells were incubated in the serum-free medium for one hour and afterwards stimulated for 24 hours. For the dose response measurement the peptides were used in a range from 1×10^−14M to 1×10^−6M. For all other experiments, a 1×10^−7M concentration of the peptides was used, whereas isoproterenol and forskolin were used in a 10^−6M concentration. To maintain the concentration of the substances over a period of 24 hours they were added again into the medium after 12 hours. After stimulation, the concentration of BDNF was determined in the cell medium. The samples were either used directly or stored at −80° C.
(§2) For the determination of the concentration of BDNF the BDNF Emax® immunoassay system from Promega was used. At first, 96-well plates were coated with anti-BDNF overnight at 4° C. The next day, the plates were washed with TBST and incubated with blocking buffer for one hour at room temperature. Afterwards, the plate was washed again with TBST, and 100 μl of sample were applied per well. The plate was incubated on a shaker (˜400 rpm) for two hours at room temperature and later on washed five times with TBST. To each well 100 μl pAb anti-human BDNF were added, and the plate again incubated under continuous shaking for two hours at room temperature. Thereafter, the plate was washed five times with TBST, each well applied with 100 μl anti-IgY-HRP conjugate, and incubated at room temperature with shaking for one hour. Then, the plate was washed five times with TBST and incubated for 10 min at room temperature on a shaker with TMB One Solution. The reaction was stopped with 1 M hydrochloric acid and the absorbance was measured immediately at 450 nm. The BDNF concentration was determined from a standard curve.

BDNF [2] = experiment: BDNF production in HUVEC, serum-free medium (BDNF Emax immunoassay); conditions: for lowest dose able to stimulate significant BDNF expression: serum-free medium, 24 hours stimulation, dose response 1×10^−14M to 1×10^−6M
Method: as §1, §2

BDNF [3] = experiment: BDNF production in HUVEC in complete (serum-containing) medium; conditions: peptide 1×10^−7M, 24 hours
Method: as §1, with “[…] […]” for “Prior to stimulation, cells were washed twice with sterile PBS and then provided with the respective serum free cell medium. Cells were incubated in the serum-free medium for one hour and afterwards stimulated for 24 hours.”
as §2, with “Thereafter, the plate was washed five times with TBST, each well applied with 100 μl anti-IgY-HRP conjugate, and incubated at room temperature with shaking for one hour. Then, the plate was washed five times with TBST and incubated for 10 min at room temperature on a shaker with TMB One Solution.” left out, “curve. […]” for “curve.”

cAMP = cAMP production in HUVEC (cAMP enzyme immunoassay); conditions: 15 minutes of stimulation
Method: Prior to stimulation with Ala^1-Arg^2-Val^3-Ser^4-Ile^5-His^6-Cys^7 (SEQ ID NO: 24), HUVEC cells were washed twice with PBS and then incubated for 1 hour in serum-free medium. In this Example, in order to generate a dose response curve, the peptide concentration ranged from 1×10^−13-1×10^−6 M. After 15 minutes of stimulation, the medium containing the peptide was removed and the cells were lysed (0.1M HCl, 0.1% Triton X-100). The clear lysate was collected, and 25 μl were used for determining the protein concentration (Pierce BCA Protein Assay Kit, Thermo Scientific, Rockford, USA) and the remaining fraction stored at −80° C. for later analysis.
cAMP concentration in cell lysates was determined using cAMP Enzyme Immunoassay Kit, Direct from Sigma-Aldrich (St. Louis, Mo., USA). Briefly, wells of 96-well plate (Goat Anti-Rabbit IgG pre-coated) were neutralized with 50 μl of Neutralizing Reagent. Next, 100 μl of acetylated cyclic AMP standard or cell lysate was added, followed by 50 μl of blue cAMP-Alkaline Phosphatase Conjugate and 50 μl of yellow EIA Rabbit Anti-cAMP antibody. The plate was then incubated on a shaker (˜500 rpm) for two hours at room temperature. […] The enzymatic reaction was stopped by adding 50 μl of Stop Solution, and the absorbance at 405 nm was measured immediately. The cAMP concentration was determined from non-linear standard curve using GraphPad Prism 5.0 software. […]

Compound: CCC(C)C1NC(=O)C(NC(=O)C(NC(=O)C(CCCNC(=N)N)NC(=O)C(N)CC(=O)O)C(C)C)CSCC(C(=O)O)NC(=O)C(Cc2c[nH]cn2)NC1=O (centres unmarked) [Pancyte]
- lowest dose able to stimulate significant BDNF expression (BDNF [1]): 10 pM
- lowest dose able to stimulate significant BDNF expression (BDNF [2]): 10 pM
- BDNF stimulation compared to control (BDNF [3]): still able to stimulate BDNF above control levels

Compound: Asp^1-Arg^2-Val^3-Tyr^4-Ile^5-His^6-Pro^7 (DRVYIHP) [Ang (1-7), naturally-occurring Angiotensin (1-7), seven amino acid peptide]
- lowest dose able to stimulate significant BDNF expression (BDNF [1]): 10000 pM
- lowest dose able to stimulate significant BDNF expression (BDNF [2]): 10000 pM

Compound: TXA301: angiotensin (1-7) peptide tested; not defined in the text, possibly linear SEQ ID NO: 6 (DRVSIHC)
- BDNF expression at doses 100,000 times higher than 1×10^−11 compared with 1×10^−11 M (BDNF [1]): statistically similar levels of expression
- lowest dose able to stimulate significant BDNF expression (BDNF [1]): 10 pM
- BDNF expression at doses 100,000 times higher than 1×10^−11 compared with 1×10^−11 M (BDNF [2]): statistically similar levels of expression
- lowest dose able to stimulate significant BDNF expression (BDNF [2]): 10 pM

Compound: Ala^1-Arg^2-Val^3-Ser^4-Ile^5-His^6-Cys^7 (ARVSIHC) [SEQ ID NO:24]
- dose of the observed maximum of cAMP (cAMP): approximately 1×10^−9 M
- lowest dose giving a significant increase in cAMP (cAMP; dose response 1×10^−13-1×10^−6 M): 10 pM
